{"source": "patent US20060234866A1", "about": "“Formulations with the capacity to increase the efficiency of plants to assimilate different mineral nutrients, especially iron, in normal conditions and in conditions of deficiency of potentially assimilable iron” (Inabonos, S.A., a Spanish joint venture company, priority 2005, published 2006)", "test_system": "pepper plants", "assay": "Iron assimilation and development of pepper plants cultivated in hydroponia", "format": "in vivo", "method": "Four different treatments are presented that are applied to peppers: • 1. The control received a nutritive solution containing different nutrients. • 2. The treatment AIA that received the same nutritive control solution was also treated with indol-acetic acid (natural auxin) at a dose of 10^−6 M. • 3. […] The treatment IND2 that received the same nutritive control solution was also treated with the composition of Example 1 at a dose of 10^−9 M. The pepper plants were cultivated in hydroponia.", "key": {"[1]": {"conditions": "dose 10^−6 M in nutritive solution"}}, "data": [{"smiles": "O=C(O)Cc1c[nH]c2ccccc12", "note": "[AIA, indol-acetic acid]", "values": [{"measurement": "Assimilated Fe, leaves", "setting": "[1]", "result": 0.335, "unit": "mg plant^−1"}, {"measurement": "Assimilated Fe, root", "setting": "[1]", "result": 2.90, "unit": "mg plant^−1"}, {"measurement": "Dry matter, leaves", "setting": "[1]", "result": 4.04, "unit": "g plant^−1"}, {"measurement": "Dry matter, root", "setting": "[1]", "result": 1.43, "unit": "g plant^−1"}, {"measurement": "Dry matter, stem", "setting": "[1]", "result": 1.09, "unit": "g plant^−1"}, {"measurement": "Assimilated Fe, leaves (% of control)", "setting": "dose 10^−6 M, control = 100", "result": 103.4, "unit": "%"}, {"measurement": "Assimilated Fe, root (% of control)", "setting": "dose 10^−6 M, control = 100", "result": 109.8, "unit": "%"}, {"measurement": "Dry matter, leaves (% of control)", "setting": "dose 10^−6 M, control = 100", "result": 136, "unit": "%"}, {"measurement": "Dry matter, root (% of control)", "setting": "dose 10^−6 M, control = 100", "result": 130, "unit": "%"}, {"measurement": "Dry matter, stem (% of control)", "setting": "dose 10^−6 M, control = 100", "result": 138, "unit": "%"}, {"measurement": "assimilation and translocation of iron (in words)", "setting": "versus control", "result": "no significant effects"}, {"measurement": "biostimulant effect (in words)", "setting": "versus control", "result": "presents a biostimulant effect"}]}]}
